For assay [1], the target named is T1, ACE (h) (Homo sapiens, UniProt P12821).
T1 construct: Cerep (contract assay)
The assay is described as follows: enzyme assay. It counts as biochemical. The conditions noted are these: 1.0E-06 M.

The target of assay [2] is T2, M2 (h) (Homo sapiens, UniProt P08172).
T2 sequence (P08172 1-466): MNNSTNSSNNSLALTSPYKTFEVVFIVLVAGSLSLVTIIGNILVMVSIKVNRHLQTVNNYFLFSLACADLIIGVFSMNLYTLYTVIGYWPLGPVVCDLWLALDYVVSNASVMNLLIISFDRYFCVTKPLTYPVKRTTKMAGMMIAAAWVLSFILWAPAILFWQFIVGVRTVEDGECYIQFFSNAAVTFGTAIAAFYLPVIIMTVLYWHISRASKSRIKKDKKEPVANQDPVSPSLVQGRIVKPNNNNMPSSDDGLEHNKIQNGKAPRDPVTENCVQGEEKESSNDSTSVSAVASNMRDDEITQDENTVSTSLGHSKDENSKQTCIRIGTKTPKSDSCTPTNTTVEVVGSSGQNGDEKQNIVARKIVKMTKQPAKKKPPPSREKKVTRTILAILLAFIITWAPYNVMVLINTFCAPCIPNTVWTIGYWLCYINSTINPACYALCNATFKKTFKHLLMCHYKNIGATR
The assay is described as follows: biochemical.

Assay [3] addresses A2A (h) (Homo sapiens, UniProt P29274). The conditions noted are these: 1.0E-06 M.
The target in assay [4] is T3, PDE6 (non-selective) (Bos taurus, UniProt P11541+P23439).
T3 construct: PDE6 bovine [3H]cGMP; tissue Cerep (contract assay); host or cells: bovine retina
T3 sequence (P11541 2-856 limits assumed): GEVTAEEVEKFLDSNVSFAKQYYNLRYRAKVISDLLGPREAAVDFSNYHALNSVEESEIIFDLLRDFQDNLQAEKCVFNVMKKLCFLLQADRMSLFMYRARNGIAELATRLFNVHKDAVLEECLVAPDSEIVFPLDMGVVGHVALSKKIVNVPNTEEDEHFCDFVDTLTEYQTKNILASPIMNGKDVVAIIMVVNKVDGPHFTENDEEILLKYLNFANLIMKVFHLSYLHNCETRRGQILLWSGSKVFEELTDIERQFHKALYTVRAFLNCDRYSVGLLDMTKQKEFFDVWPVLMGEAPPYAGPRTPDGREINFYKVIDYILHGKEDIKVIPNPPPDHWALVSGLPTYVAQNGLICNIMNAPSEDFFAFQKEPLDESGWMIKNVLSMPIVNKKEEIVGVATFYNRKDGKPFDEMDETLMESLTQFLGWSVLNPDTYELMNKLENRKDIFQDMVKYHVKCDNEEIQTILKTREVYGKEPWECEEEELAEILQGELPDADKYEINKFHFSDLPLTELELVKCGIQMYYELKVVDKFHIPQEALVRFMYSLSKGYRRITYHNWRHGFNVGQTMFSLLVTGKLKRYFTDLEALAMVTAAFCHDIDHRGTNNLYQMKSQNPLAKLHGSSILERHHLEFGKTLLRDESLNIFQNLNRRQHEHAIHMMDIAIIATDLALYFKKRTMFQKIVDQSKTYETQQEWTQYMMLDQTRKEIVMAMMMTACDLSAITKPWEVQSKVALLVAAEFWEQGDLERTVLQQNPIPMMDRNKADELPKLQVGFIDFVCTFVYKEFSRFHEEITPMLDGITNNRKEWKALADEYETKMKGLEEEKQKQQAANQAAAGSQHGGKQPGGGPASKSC
T3 sequence (P23439 2-850 limits assumed): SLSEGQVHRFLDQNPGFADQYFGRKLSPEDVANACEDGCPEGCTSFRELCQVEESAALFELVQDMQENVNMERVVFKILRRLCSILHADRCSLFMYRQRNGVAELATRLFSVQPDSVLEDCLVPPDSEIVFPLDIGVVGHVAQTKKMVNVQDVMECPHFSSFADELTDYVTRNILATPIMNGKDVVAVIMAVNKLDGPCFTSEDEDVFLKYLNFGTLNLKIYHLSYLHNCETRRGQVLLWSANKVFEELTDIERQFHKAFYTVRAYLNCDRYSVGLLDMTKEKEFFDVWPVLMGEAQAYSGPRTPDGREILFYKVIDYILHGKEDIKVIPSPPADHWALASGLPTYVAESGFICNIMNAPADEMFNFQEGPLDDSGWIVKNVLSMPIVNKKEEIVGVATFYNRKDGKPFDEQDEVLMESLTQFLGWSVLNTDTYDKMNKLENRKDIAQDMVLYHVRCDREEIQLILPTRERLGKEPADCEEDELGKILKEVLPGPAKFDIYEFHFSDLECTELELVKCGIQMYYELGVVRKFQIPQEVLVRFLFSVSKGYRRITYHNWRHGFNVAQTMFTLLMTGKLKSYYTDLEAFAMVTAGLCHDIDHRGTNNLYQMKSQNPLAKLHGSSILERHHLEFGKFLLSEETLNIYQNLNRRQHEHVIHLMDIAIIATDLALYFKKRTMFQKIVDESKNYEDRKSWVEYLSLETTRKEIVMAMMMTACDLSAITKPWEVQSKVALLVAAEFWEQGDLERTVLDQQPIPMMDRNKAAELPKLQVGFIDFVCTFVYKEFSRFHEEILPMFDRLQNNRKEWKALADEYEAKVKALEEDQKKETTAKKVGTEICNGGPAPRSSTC
The experiment in a line: enzyme assay. It counts as biochemical, bovine. The following applies: 1.0E-06 M.

Assay [5] concerns the target GABA transporter (Rattus norvegicus, UniProt P23978).
Assay [6] addresses T4, ETB (h) (Homo sapiens, UniProt P24530).
T4 construct: host or cells: CHO cells
T4 sequence (P24530 27-442): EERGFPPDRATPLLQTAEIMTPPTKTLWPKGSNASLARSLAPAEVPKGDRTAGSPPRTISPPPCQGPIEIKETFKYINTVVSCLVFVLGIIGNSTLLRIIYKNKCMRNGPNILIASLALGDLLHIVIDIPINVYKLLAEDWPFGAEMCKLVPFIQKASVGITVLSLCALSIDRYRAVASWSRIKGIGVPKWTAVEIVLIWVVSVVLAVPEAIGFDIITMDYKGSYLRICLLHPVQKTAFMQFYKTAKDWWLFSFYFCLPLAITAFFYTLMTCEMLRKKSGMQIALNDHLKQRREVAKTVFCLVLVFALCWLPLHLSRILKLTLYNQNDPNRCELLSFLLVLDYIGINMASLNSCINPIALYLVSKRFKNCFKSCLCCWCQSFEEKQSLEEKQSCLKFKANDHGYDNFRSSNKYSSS
Format: binding.

Like-named read-outs stand apart in the source and are kept apart here.

T1 sequence (P12821 30-1306): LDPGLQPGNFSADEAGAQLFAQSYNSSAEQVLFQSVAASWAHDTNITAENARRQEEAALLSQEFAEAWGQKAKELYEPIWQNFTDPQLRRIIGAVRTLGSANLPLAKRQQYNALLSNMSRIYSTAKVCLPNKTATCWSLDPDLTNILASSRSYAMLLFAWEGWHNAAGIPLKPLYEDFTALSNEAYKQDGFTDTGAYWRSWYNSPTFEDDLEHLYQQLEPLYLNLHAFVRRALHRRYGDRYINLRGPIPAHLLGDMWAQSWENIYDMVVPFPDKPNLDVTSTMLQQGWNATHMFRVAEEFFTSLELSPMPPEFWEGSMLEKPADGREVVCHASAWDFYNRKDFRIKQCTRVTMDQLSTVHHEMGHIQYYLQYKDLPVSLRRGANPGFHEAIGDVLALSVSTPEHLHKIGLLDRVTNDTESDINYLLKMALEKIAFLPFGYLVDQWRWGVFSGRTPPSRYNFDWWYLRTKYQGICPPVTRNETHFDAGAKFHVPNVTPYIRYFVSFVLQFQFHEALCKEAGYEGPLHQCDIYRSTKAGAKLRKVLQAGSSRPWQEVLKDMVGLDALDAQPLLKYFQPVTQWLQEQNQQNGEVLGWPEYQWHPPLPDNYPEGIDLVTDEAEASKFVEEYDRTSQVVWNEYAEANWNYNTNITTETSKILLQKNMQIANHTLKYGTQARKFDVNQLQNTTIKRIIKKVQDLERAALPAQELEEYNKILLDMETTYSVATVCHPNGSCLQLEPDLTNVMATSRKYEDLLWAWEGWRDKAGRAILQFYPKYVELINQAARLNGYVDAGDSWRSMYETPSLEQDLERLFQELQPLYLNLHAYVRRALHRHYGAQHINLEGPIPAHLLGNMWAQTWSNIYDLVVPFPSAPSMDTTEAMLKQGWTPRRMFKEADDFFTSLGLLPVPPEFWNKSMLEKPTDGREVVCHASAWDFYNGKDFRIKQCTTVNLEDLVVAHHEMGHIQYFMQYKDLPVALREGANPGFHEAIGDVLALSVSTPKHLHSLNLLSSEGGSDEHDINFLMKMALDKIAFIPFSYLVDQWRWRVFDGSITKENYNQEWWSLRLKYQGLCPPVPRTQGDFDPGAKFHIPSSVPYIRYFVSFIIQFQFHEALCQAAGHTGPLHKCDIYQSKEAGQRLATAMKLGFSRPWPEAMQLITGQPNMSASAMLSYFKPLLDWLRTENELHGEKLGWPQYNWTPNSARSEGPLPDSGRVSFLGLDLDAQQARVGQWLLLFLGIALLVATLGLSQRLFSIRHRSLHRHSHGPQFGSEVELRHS
A2A (h), sequence (P29274 whole entry): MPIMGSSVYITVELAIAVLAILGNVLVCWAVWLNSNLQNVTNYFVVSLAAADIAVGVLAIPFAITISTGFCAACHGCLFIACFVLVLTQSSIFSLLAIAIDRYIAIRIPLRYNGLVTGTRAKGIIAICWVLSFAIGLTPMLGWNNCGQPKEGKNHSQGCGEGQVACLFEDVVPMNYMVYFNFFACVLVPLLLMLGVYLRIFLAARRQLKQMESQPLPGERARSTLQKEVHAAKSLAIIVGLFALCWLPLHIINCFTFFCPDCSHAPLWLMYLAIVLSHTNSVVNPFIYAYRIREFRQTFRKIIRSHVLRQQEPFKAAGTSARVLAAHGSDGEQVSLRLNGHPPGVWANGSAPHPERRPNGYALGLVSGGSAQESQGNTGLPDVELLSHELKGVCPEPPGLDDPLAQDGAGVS

As to `Cn1c(=O)n(CCCO)c(=O)c2c1nc(Oc1cccc(OC(F)(F)F)c1)n2Cc1ccc(Cl)cc1` [HC-608], the inhibition at 1 µM in assay [1] (read-out: % Inhibition 1st) is 0%; in assay [1] (read-out: % Inhibition 2nd), 6%; in assay [1] (read-out: % Inhibition Mean) it was 3%; in assay [2] (read-out: % Inhibition 1st) it was -15.9%; in assay [2] (read-out: % Inhibition 2nd), -14.2%; in assay [2] (read-out: % Inhibition Mean) it was -15%. Also, the inhibition at 1 µM in assay [4] (read-out: % Inhibition 1st) was 25.3%; in assay [4] (read-out: % Inhibition 2nd), 8.8%; in assay [4] (read-out: % Inhibition Mean) it was 17%; in assay [6] (1.0E-06 M, read-out: % Inhibition 2nd), -0.1%; in assay [6] (1.0E-06 M, read-out: % Inhibition Mean), 12.7%; in assay [6] (read-out: % Inhibition 1st), 25.5%. In assay [3], the “% Inhibition 1st” value amounted to 20.8%. For the same compound, the “% Inhibition 2nd” value in assay [3] was 31.1%; in assay [5], -18.4%. Moreover, the “% Inhibition Mean” value is 25.9% in assay [3] and -15.7% in assay [5].

For the origin of these results see publication PMC5791972 (PLoS ONE, 2018).
